Results taken from ChEMBL document CHEMBL1144279, “Biarylcarboxybenzamide derivatives as potent vanilloid receptor (VR1) antagonistic ligands” (Bioorg Med Chem Lett, 2005).

Experiments:
[1] = target: T1, Transient receptor potential cation channel subfamily V member 1 (Rattus norvegicus, UniProt O35433); assay: In vitro agonistic activity on VR1 receptor in [Ca2+] influx assay in rat dorsal root ganglion (NE: not effective at 30 uM); type: functional, tissue-based
[2] = target: T1, Transient receptor potential cation channel subfamily V member 1; assay: In vitro antagonistic activity on VR1 receptor in [Ca2+] influx assay in rat dorsal root ganglion; type: functional, tissue-based

T1 sequence (O35433 whole entry): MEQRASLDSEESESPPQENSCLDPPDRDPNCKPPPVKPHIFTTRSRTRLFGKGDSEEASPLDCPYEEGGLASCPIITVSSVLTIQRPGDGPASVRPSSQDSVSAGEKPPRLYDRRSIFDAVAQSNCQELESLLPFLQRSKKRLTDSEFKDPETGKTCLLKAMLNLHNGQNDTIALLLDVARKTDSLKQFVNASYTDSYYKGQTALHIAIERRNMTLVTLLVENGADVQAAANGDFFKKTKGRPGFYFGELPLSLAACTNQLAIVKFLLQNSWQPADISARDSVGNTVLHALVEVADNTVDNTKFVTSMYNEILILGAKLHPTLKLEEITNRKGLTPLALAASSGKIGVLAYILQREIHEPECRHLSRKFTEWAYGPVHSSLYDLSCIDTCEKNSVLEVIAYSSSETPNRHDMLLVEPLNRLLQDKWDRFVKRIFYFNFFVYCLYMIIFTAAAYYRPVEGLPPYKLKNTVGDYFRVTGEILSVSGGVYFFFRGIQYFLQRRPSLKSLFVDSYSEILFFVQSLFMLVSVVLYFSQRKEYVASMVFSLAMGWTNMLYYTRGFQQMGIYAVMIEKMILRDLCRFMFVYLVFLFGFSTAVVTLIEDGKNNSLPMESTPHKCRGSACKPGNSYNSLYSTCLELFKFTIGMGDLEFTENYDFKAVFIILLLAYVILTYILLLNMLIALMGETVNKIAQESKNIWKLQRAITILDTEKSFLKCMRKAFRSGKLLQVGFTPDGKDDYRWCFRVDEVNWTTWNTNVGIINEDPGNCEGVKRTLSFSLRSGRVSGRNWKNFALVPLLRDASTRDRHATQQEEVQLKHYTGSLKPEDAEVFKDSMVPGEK

Compound | IC50 [1] | IC50 [2]
Cc1ccc(NC(=O)c2ccc(-c3ccccn3)cc2)cc1C | Not Active | 2000 nM
CC(C)(C)c1ccc(NC(=O)c2ccc(-c3cnccn3)cc2)cc1 | Not Active | 1000 nM
CN(C(=O)c1ccc(-c2ccccn2)cc1)c1ccc(C(C)(C)C)cc1 | Not Active | > 10000 nM
O=C(Nc1ccc(C(F)(F)F)cc1)c1ccc(-c2ccccn2)cc1 | Not Active | 7900 nM
O=C(Nc1ccccc1)c1ccc(-c2ccccn2)cc1 | Not Active | > 10000 nM
Cc1ccc(NC(=O)c2ccc(-c3ccccn3)cc2)cc1 | Not Active | 2300 nM
CC(C)(C)c1ccc(NC(=O)c2ccc(-c3ccccc3)cc2)cc1 | Not Active | 3600 nM
CC(C)(C)c1ccc(NC(=O)c2ccc(-c3ccncc3)cc2)cc1 | Not Active | 280 nM
CC(C)(C)c1ccc(NC(=O)c2ccc(-c3cccnc3)cc2)cc1 | Not Active | 1300 nM
CC(C)(C)c1ccc(NC(=O)c2ccc(-c3cncnc3)cc2)cc1 | Not Active | > 10000 nM

Now those with a lower IC50 [2], led by results:

IC50 [1] | IC50 [2] | Compound
Not Active | 31 nM | Cc1cccnc1-c1ccc(C(=O)Nc2ccc(C(C)(C)C)cc2)cc1
Not Active | 140 nM | CC(C)(C)c1ccc(NC(=O)c2ccc(-c3ncccc3C(F)(F)F)cc2)cc1
Not Active | 60 nM | CC(C)(C)c1ccc(NC(=O)c2ccc(-c3ncccn3)cc2)cc1
Not Active | 60 nM | CC(C)(C)c1ccc(NC(=O)c2ccc(-c3ncccc3[N+](=O)[O-])cc2)cc1
Not Active | 31 nM | CC(C)(C)c1ccc(NC(=O)c2ccc(-c3ccccn3)cc2)cc1
Not Active | 150 nM | CC(C)(C)c1ccc(NC(=O)N2CCN(c3ccccn3)CC2)cc1
Not Active | 55 nM | CC(C)(C)c1ccc(NC(=O)c2ccc(-c3ncccc3Cl)cc2)cc1
Not Active | 38 nM | CC(C)c1ccc(NC(=O)c2ccc(-c3ccccn3)cc2)cc1
